In patent US20220002226A1, “Amorphous Form of Chelating Agents and Process for Preparing them” (Hovione Scientia Limited, priority 2018, published 2022):

How the values were obtained:
[1] = Solubility test according to European Pharmacopoeia (Ph. Eur. 5.11): increasing amounts of water added to 100 mg of powder; format: physicochemical; conditions: 22° C.; for 100 mg dissolved in stated volume of water (YES/No): 100 mg powder
Procedure: Characters section in monographs. This was used in the tests below.
Solubility was assessed using the European Pharmacopeia method referred to above where increasing amounts of water are added to 100 mg of powder until its complete dissolution (or otherwise).
Characters section in monographs.

[2] = cited from earlier work
[3] = 0.1 ml water, Ph. Eur. class Very soluble
[4] = 1.0 ml water, Ph. Eur. class Freely soluble
[5] = 3.0 ml water, Ph. Eur. class Soluble
[6] = 10.0 ml water, Ph. Eur. class Sparingly soluble
[7] = 20.0 ml water, Ph. Eur. class Slightly soluble
[8] = 30.0 ml water, Ph. Eur. class Very slightly soluble
[9] = 40.0 ml water, Ph. Eur. class Insoluble
[10] = 50.0 ml water, Ph. Eur. class printed Insoluble (Tables 2, 6), Very slightly soluble (Table 4)
[11] = 60.0 ml water, Ph. Eur. class Insoluble
[12] = 70.0 ml water, Ph. Eur. class Insoluble
[13] = 80.0 ml water, Ph. Eur. class Insoluble

| 100 mg dissolved in stated volume of water (YES/No) [1, 3] | 100 mg dissolved in stated volume of water (YES/No) [1, 4] | 100 mg dissolved in stated volume of water (YES/No) [1, 5] | 100 mg dissolved in stated volume of water (YES/No) [1, 6] | 100 mg dissolved in stated volume of water (YES/No) [1, 7] | 100 mg dissolved in stated volume of water (YES/No) [1, 8] | solubility compared with the corresponding crystalline form ([1]; Ph. Eur. solubility test, water) | 100 mg dissolved in stated volume of water (YES/No) [1, 9] | 100 mg dissolved in stated volume of water (YES/No) [1, 10] | 100 mg dissolved in stated volume of water (YES/No) [1, 11] | 100 mg dissolved in stated volume of water (YES/No) [1, 12] | 100 mg dissolved in stated volume of water (YES/No) [1, 13] | SMILES | solubility in water (prior-art statement) [2] |
| --- | --- | --- | --- | --- | --- | --- | --- | --- | --- | --- | --- | --- | --- |
| No | No | No | No | No | YES | higher solubility |  |  |  |  |  | O=C(O)CN(CCN(CC(=O)O)CC(=O)O)CCN(CC(=O)O)CC(=O)O [DTPA Amorphous pharma grade, diethylenetriaminepentaacetic acid] |  |
| No | No | No | No | No | No |  | No | No | No | No | YES | O=C(O)CN(CCN(CC(=O)O)CC(=O)O)CCN(CC(=O)O)CC(=O)O [DTPA Crystalline Industrial grade, diethylenetriaminepentaacetic acid] |  |
| No | No | No | No | No | No |  | No | No | No | No | YES | O=C(O)CN(CCN(CC(=O)O)CC(=O)O)CCN(CC(=O)O)CC(=O)O [DTPA Crystalline pharma grade, diethylenetriaminepentaacetic acid] |  |
|  |  |  |  |  |  |  |  |  |  |  |  | O=C(O)CN(CCN(CC(=O)O)CC(=O)O)CCN(CC(=O)O)CC(=O)O [DTPA, diethylenetriaminepentaacetic acid] | soluble in water only at higher pH (around 8) |
